Results taken from patent US10426784B2, “Imidazodiazepine compound” (Astellas Pharma Inc., priority 2015, dated 2019).

Key:
[1] = molecular target: T1, human dopamine D1 receptor (Homo sapiens, UniProt P21728); assay: Evaluation of positive allosteric modulating action (PAM action): left shift of dopamine dose-response curve (cAMP, TR-FRET); type: cell-based; settings: human dopamine D1 receptor stably-expressing CHO cells
T1 construct: expressed in transfected cells
Procedure: Buffer solution for assay=αMEM containing 1 mM IBMX
Buffer solution for dilution=αMEM containing 1 mM IBMX and 0.8 mM ascorbic acid
Evaluation of Positive allosteric modulating action (PAM action)
The PAM action of the compound of the present invention was evaluated by the ratio of a left shift of a dopamine dose response curve.
The left shift means that the dopamine dose response curve, in which the logarithm of dose is set to abscissa (X axis) and the response (in this test, cAMP concentration) is set to ordinate (Y axis), is parallely shifted in the negative direction of the X axis by the addition of PAM.
The coding sequence of a human dopamine D1 receptor (Accession No.: NM_000794.3) was amplified by PCR, and was subcloned into a pEF-BOS vector. […]
To measure cAMP, LANCE Ultra cAMP kit (PerkinElmer Inc., LANCE is a registered trademark) was used. […] The plate was incubated at room temperature for 1 hour, and then the fluorescence intensity at 665 nm and 620 nm was measured (excitation wavelength: 320 nm, fluorescence wavelength: 665 nm, 620 nm) by TR-FRET method using a plate reader (2103 Multilabel Plate Reader (registered trademark Envision), PerkinElmer, Inc.). The fluorescence intensity ratio [(fluorescence intensity at 665 nm)/(fluorescence intensity at 620 nm)×10^4] of each well was calculated, and was used for analysis. […]

[2] = test system: ddY male mouse; assay: Y-maze test (spontaneous alternation behavior, MK-801-induced cognitive impairment); type: in vivo; settings: single oral administration 1 hour before test, MK-801 0.15 mg/kg i.p.
Procedure: The improvement effect on cognitive impairment of the compound of the present invention was evaluated using Y-maze test that is an experimental system of spontaneous alternation behavior.
As the Y-maze, a maze in which three runways, each having a length of 40 cm, a height of 13 cm, a floor width of 3 cm, and an upper portion width of 10 cm, are attached to each other in a Y shape at an angle of 120°, was used. […]
After the aforementioned mouse was placed at the end of any runway in the Y-maze, the mouse was freely searched for eight minutes. The number of times the mouse has entered the runway was counted, and this counted number of times was set to the total entry number. The number of times the mouse has continuously entered three different runways (for example, when three arms were represented by a, b, and c, respectively, in the case where the order of entry of runways is abccbacab, it was counted by 4) was set to spontaneous alternation behavior number. Spontaneous alternation behavior rate is calculated by Calculation Equation: Spontaneous alternation behavior rate=[spontaneous alternation behavior number/(total entry number−2)]×100. The calculated spontaneous alternation behavior rate was set to an index of spontaneous alternation behavior.
The measured value was represented by average value f standard error for each group. […]

[3] = test system: male Long Evans rats; assay: Attentional set-shifting task (sub-chronic PCP rats); type: in vivo, rat; settings: single oral administration after CD
Procedure: Attentional Set-Shifting Task
The compound of the present invention was evaluated by an attentional set-shifting task test.
The attentional set-shifting task test, as in WCST, is a test for measuring flexibility with respect to the change of a rule (clue). The effect on executive function disorder which is one of higher brain dysfunctions can be evaluated by this test.
After allowing the mouse to learn a task that food reward is obtained if there is a clue, in the case where the clue is shifted within a dimension (for example, the clue is changed from a form to another form), both normal animal and pathological animal having abnormality in the prefrontal cortex of the brain (hereinafter, referred to as “pathological animal”) can discriminate clues to obtain food reward. However, after allowing the mouse to learn a task of obtaining food reward by a clue, in the case where the clue is shifted to the outside of a dimension (for example, the clue is changed from a form to aroma), the normal animal can discriminate a clue of food, but the pathological animal cannot discriminate the clue of food. This test puts this behavior to practical use.
The following experiments were carried out with reference to European Journal of Neuroscience, 2005, vol. 21, p. 1070-1076, which was partially modified. […]

T1 sequence (P21728 whole entry): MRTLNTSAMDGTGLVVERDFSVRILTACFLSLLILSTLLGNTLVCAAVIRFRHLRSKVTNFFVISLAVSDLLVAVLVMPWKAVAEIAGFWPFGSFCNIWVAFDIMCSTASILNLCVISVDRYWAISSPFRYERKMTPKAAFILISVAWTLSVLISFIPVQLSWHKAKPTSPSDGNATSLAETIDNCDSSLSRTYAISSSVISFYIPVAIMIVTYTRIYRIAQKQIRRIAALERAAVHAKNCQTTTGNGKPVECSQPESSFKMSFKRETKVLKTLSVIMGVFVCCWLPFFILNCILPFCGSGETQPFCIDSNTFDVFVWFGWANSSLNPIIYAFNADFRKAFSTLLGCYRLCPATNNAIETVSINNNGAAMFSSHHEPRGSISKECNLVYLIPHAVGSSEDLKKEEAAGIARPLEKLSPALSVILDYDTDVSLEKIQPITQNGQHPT

## O=C(Cn1c(=O)oc2cccc(F)c21)N1CCCn2cc(-c3ccc(C(F)(F)F)cc3)nc2C1 [Ex1, 4-fluoro-3-(2-oxo-2-{2-[4-(trifluoromethyl)phenyl]-6,7-dihydro-5H-imidazo[1,2-a][1,4]diazepin-8(9H)-yl}ethyl)-1,3-benzoxazol-2(3H)-one]
[1]
  EC50 2-fold potentiation (test drug concentration by which the EC50 of dopamine is potentiated in 2-fold): 61 nM
[2]
  Dat2: minimum effective dose (significantly improving spontaneous alternation behavior): 0.03 mg/kg
[3]
  Dat3: minimum effective dose (improving the executive function disorder, ED task): 0.003 mg/kg
